Measurements reported in ChEMBL document CHEMBL3507680, “University of Dundee, Gates Library screen for HepG2 cell viability”.

Assay: Human HepG2 cell viability assay in 384 well format
Type: toxicity, cell-based
Set-up: dose 125 nL, time 70.5 hour; cytotoxicity at 70.5 h: concentration not given beside the values
Conditions: HepG2 cells, read-out: Inhibition

## Cc1noc(C2CCC3(CCN(C(=O)c4cc(C5CC5)on4)CC3)O2)n1 (stereo not given)
  cytotoxicity at 70.5 h: -0.565%

## O=C1CCCN1Cc1ncn2c1CN(C(=O)Cc1cccs1)CCC2
  cytotoxicity at 70.5 h: -1.17%

## CCn1ncc2c1C(COC)CN(Cc1nccs1)C2 (stereo not given)
  cytotoxicity at 70.5 h: 30.6%

## CCOCC1CN(Cc2ccsc2)Cc2cnn(C)c21 (stereo not given)
  cytotoxicity at 70.5 h: -0.486%

## CCn1ncc2c1C(COC)CN(Cc1ccco1)C2 (stereo not given)
  cytotoxicity at 70.5 h: 3.48%

## CNC(=O)[C@@]12CCC3(CCN(C(=O)COC)CC3)[C@@H]1CN(S(C)(=O)=O)C2
  cytotoxicity at 70.5 h: 4.47%

## COCc1ncn2c1CN(C(=O)c1ccco1)CC2
  cytotoxicity at 70.5 h: 1.28%

## COCCO[C@H]1CCN(Cc2cnn(C)c2)[C@H]1Cc1cccnc1
  cytotoxicity at 70.5 h: -3.42%

## COCCO[C@H]1CCN(Cc2ccoc2)[C@H]1Cc1cccnc1
  cytotoxicity at 70.5 h: -0.128%

## CCc1ccc(S(=O)(=O)N2CCCC3(CCCN3S(C)(=O)=O)C2)cc1 (stereo not given)
  cytotoxicity at 70.5 h: 22.3%

## COCc1ncn2c1CN(C(=O)c1cnc3ccccc3c1)CC2
  cytotoxicity at 70.5 h: 1.48%

## Cn1ncc2c1C(COCC1CC1)CN(Cc1ccsc1)C2 (stereo not given)
  cytotoxicity at 70.5 h: 2.88%

## CS(=O)(=O)N1CCCC12CCCN(S(=O)(=O)c1ccc(F)c(F)c1)C2 (stereo not given)
  cytotoxicity at 70.5 h: 2.95%

## CC(C)c1ccc(S(=O)(=O)N2CCCC3(CCCN3S(C)(=O)=O)C2)cc1 (stereo not given)
  cytotoxicity at 70.5 h: 39.5%

## O=C(C1CC1)N1CCC2(COCc3cnc(NCc4ccco4)nc32)C1 (stereo not given)
  cytotoxicity at 70.5 h: -2.45%

## O=C1CC2(CCN(c3nncs3)C2)CN1c1ccc2c(c1)OCCO2 (stereo not given)
  cytotoxicity at 70.5 h: -1.06%

## Cc1cccc(N2CC3(CCN(c4nncs4)C3)CC2=O)c1 (stereo not given)
  cytotoxicity at 70.5 h: -4.91%

## CO[C@H]1CN(C(=O)c2ccc[nH]2)[C@@H]2COC[C@H]12
  cytotoxicity at 70.5 h: -2.94%

## O=C(NCC1CCN(C(=O)c2ccoc2)CC1)c1ccccc1Br
  cytotoxicity at 70.5 h: -0.695%

## O=S(=O)(c1ccccc1)N1CCN(CCn2ccnc2)CC1
  cytotoxicity at 70.5 h: 1.34%

## O=S(=O)(c1cccnc1)N1CCN(CCn2ccnc2)CC1
  cytotoxicity at 70.5 h: -0.387%

## COc1ccccc1NC(=O)NCC(O)(c1ccccc1)C1CC1 (stereo not given)
  cytotoxicity at 70.5 h: 20.2%

## Cc1ccc(NC(=O)Nc2cnc(N3CCN(C)CC3)nc2)c(Cl)c1
  cytotoxicity at 70.5 h: 3.18%

## NC(=O)c1nnn(-c2ccc(Br)cc2)n1
  cytotoxicity at 70.5 h: 33.2%

## Cn1c(C(F)(F)F)nn(CCNC(=O)CSCc2ccccc2)c1=O
  cytotoxicity at 70.5 h: 0.995%

## O=C1CCSCC(C(=O)N2CCOCC2)N1 (stereo not given)
  cytotoxicity at 70.5 h: 0.753%

## CCOC(=O)CCC(=O)N1CCC(Oc2ccc(C(F)(F)F)cn2)CC1
  cytotoxicity at 70.5 h: -4.1%

## CC(=O)N1CCC(Oc2ccc(C#N)cn2)CC1
  cytotoxicity at 70.5 h: -3.09%

## CN(C)S(=O)(=O)N1CCC(Oc2ccc(C#N)cn2)CC1
  cytotoxicity at 70.5 h: -1.45%

## COC(=O)c1sccc1S(=O)(=O)N1CCC(Oc2cccnn2)CC1
  cytotoxicity at 70.5 h: -3.46%

## COc1ncc(NC(=O)Nc2cc(C)ccc2OC)cn1
  cytotoxicity at 70.5 h: 39.1%

## CN(C)CC1CSCCCN1C(=O)Nc1ccc(C(C)(C)C)cc1 (stereo not given)
  cytotoxicity at 70.5 h: 5.94%

## Cc1cnc2n(c1=O)CC(C(=O)Nc1ccccc1Cl)CS2 (stereo not given)
  cytotoxicity at 70.5 h: -5%

## CCc1c(C)nc2n(c1=O)CC(C(=O)Nc1nc3c(s1)CCCC3)CS2 (stereo not given)
  cytotoxicity at 70.5 h: 12.5%

## CCc1c(C)nc2n(c1=O)CC(C(=O)Nc1ccccc1F)CS2 (stereo not given)
  cytotoxicity at 70.5 h: 20.5%

## COCCN(Cc1ccoc1)C(=O)c1cccnc1SC
  cytotoxicity at 70.5 h: -0.295%

## Cn1cc(C(=O)Nc2ccc3c(c2)CN(C(=O)c2ccco2)CC3)nn1
  cytotoxicity at 70.5 h: -4.02%

## O=C(NCCn1ccc(-c2ccncc2)n1)c1ccncc1
  cytotoxicity at 70.5 h: -2.74%

## O=C(NCCn1ccc(-c2ccccn2)n1)C1CC1
  cytotoxicity at 70.5 h: -4.52%

## Cn1nc(CNC(=O)c2ccc(Cl)cc2)c2c1CCOC2
  cytotoxicity at 70.5 h: 3.98%

## Cn1nc(CNC(=O)NCc2ccc(Cl)cc2)c2c1CCOC2
  cytotoxicity at 70.5 h: -0.247%

## Cn1nc(CNC(=O)C2COc3ccccc3O2)cc1C1CC1 (stereo not given)
  cytotoxicity at 70.5 h: 6.17%

## Cn1cnnc1S(=O)(=O)C1CCN(S(=O)(=O)c2ccc(F)c(Cl)c2)CC1
  cytotoxicity at 70.5 h: -5.73%

## CNC(=O)CS(=O)(=O)C1CCN(S(=O)(=O)c2c(F)cccc2F)CC1
  cytotoxicity at 70.5 h: -7.9%

## O=C1CC(c2cccc(O)c2)c2sc(C(=O)O)c(-c3ccccc3)c2N1 (stereo not given)
  cytotoxicity at 70.5 h: 26.4%

## CC(C)n1[nH]c(=O)c2c1NC(=O)CC2c1ccc2ncccc2c1 (stereo not given)
  cytotoxicity at 70.5 h: 5.19%

## O=C(NCCC1=CCCCC1)C1CCN(c2ccc3nncn3n2)CC1
  cytotoxicity at 70.5 h: 3.11%

## CC(C)n1[nH]c(=O)c2c1NC(=O)CC2c1cccc(OC(F)F)c1 (stereo not given)
  cytotoxicity at 70.5 h: 6.29%

## CC(C)(C)n1ncc2c1NC(=O)CC2c1ccsc1 (stereo not given)
  cytotoxicity at 70.5 h: -5.9%

## CS(=O)(=O)N1CCN(C(=O)Cn2ccc3c(Cl)cccc32)CC1
  cytotoxicity at 70.5 h: 8.68%

## COC(=O)Cn1c(=O)nc2n1C(=O)N(c1ccc(Cl)cc1)C2
  cytotoxicity at 70.5 h: 8.74%

## COC(=O)Cn1c(=O)nc2n1C(=O)N(c1ccccc1)C2
  cytotoxicity at 70.5 h: -8.59%

## CC(C)(C)n1ncc2c1NC(=O)CC2c1ccc(OCC(N)=O)cc1 (stereo not given)
  cytotoxicity at 70.5 h: -10.7%

## CC(C)(C)n1ncc2c1NC(=O)CC2c1ccccc1 (stereo not given)
  cytotoxicity at 70.5 h: -7.73%

## O=C1CC(c2ccco2)c2sc(C(=O)O)c(-c3ccccc3)c2N1 (stereo not given)
  cytotoxicity at 70.5 h: -13.5%

## CCOc1ccc(CNCCCn2ccnc2)cc1Br
  cytotoxicity at 70.5 h: 6.06%

## O=C(O)c1nnn(Cc2cccc(C(F)(F)F)c2)c1-c1cccnc1
  cytotoxicity at 70.5 h: -30.6%

## O=C(Cn1cc(C(=O)O)ccc1=O)Nc1ccc(Cl)cc1F
  cytotoxicity at 70.5 h: -38%

## COc1ccc(OC)c(C2C3=C(COC3=O)Nc3[nH]nc(C)c32)c1 (stereo not given)
  cytotoxicity at 70.5 h: 32%

## O=C1N(c2ccc(Br)cc2)Cc2nc(=O)[nH]n21
  cytotoxicity at 70.5 h: -16.4%

## O=C(O)c1cc2c(nc1O)CC(c1cccs1)CC2=O (stereo not given)
  cytotoxicity at 70.5 h: -3.98%

## O=S(=O)(NC1=NCN(CCc2cccs2)CN1)c1ccccc1
  cytotoxicity at 70.5 h: -19.9%

## O=C1CC(c2ccc(C(=O)O)cc2)c2ncn(-c3cccc(F)c3)c2N1 (stereo not given)
  cytotoxicity at 70.5 h: -24.3%

## O=C1CC(c2ccc(C(=O)O)cc2)c2ncn(-c3ccccc3)c2N1 (stereo not given)
  cytotoxicity at 70.5 h: -6.45%

## COc1cc(CCC(C)O)c(OC)c2c1OCO2 (stereo not given)
  cytotoxicity at 70.5 h: -4.78%

## Cc1c(C)n(Cc2ccccn2)c2nc3c(c(N)c12)CCCC3
  cytotoxicity at 70.5 h: -14.4%

## CCCNC(=O)c1cc2c(nc1O)CCC(C)C2 (stereo not given)
  cytotoxicity at 70.5 h: 22.8%

## O=c1ccc(-c2cccs2)nn1CN1CCCCCC1
  cytotoxicity at 70.5 h: -24.8%

## CC(=O)Nc1ccc(-n2ccc3nc(N4CCCC4)ncc3c2=O)cc1
  cytotoxicity at 70.5 h: 1.42%

## Cc1ccc(C)c(-n2ccc3nc(N4CCCC4)ncc3c2=O)c1
  cytotoxicity at 70.5 h: -7.78%

## Cc1ccc(NS(=O)(=O)CC2=NC(=O)n3cccc3C2=O)cc1
  cytotoxicity at 70.5 h: -36.1%

## O=c1[nH]c2c(c(=O)n1C1CCCCC1)CCC2Nc1ccccc1Cl (stereo not given)
  cytotoxicity at 70.5 h: 21.6%

## CCc1ccc(NS(=O)(=O)CC2=NC(=O)n3cccc3C2=O)cc1
  cytotoxicity at 70.5 h: -5.39%

## COCCN1C(=O)CC(N2CCN(c3ccc(F)cc3)CC2)C1=O (stereo not given)
  cytotoxicity at 70.5 h: 13.6%

## CC(C)CCNC(=O)c1sccc1N(C)S(=O)(=O)c1ccccc1
  cytotoxicity at 70.5 h: 33.2%

## CCCNC(=O)c1sccc1N(C)S(=O)(=O)c1ccc(Cl)cc1
  cytotoxicity at 70.5 h: 20.9%

## COc1cccc(N2CCN(CC(O)c3ccc(C)cc3)CC2)c1 (stereo not given)
  cytotoxicity at 70.5 h: 3.16%

## O=C(O)c1nnn(-c2ccc(F)c(F)c2)c1-c1ccncc1
  cytotoxicity at 70.5 h: -8.76%

## CCc1ccccc1-n1nnc(C(=O)O)c1-c1ccccn1
  cytotoxicity at 70.5 h: -8.12%

## NC(=O)C1CCN(c2nc3nccc(-c4ccccn4)c3c(=O)[nH]2)CC1
  cytotoxicity at 70.5 h: -3.55%

## CCN(c1ccc(C(=O)NCCCN2CCOCC2)cc1)S(=O)(=O)CC
  cytotoxicity at 70.5 h: 17.8%

## CCS(=O)(=O)Nc1ccc(C(=O)NCCCN2CCCC2)cc1
  cytotoxicity at 70.5 h: -4.61%

## COc1cccc(C2CC(=O)Nc3nc(N4CCOCC4)sc32)c1OC (stereo not given)
  cytotoxicity at 70.5 h: -8.01%

## CCCNC(=O)c1c(-n2cnnn2)sc2c1CCC2
  cytotoxicity at 70.5 h: -10.4%

## O=C(Nc1ccccc1)c1nn(C2CCS(=O)(=O)C2)c2c1CCCC2 (stereo not given)
  cytotoxicity at 70.5 h: -11.3%

## O=c1nc(CNc2ccccc2)[nH]n1Cc1ccccc1
  cytotoxicity at 70.5 h: -13.1%

## CC1CCN(c2nc(O)cc(C3CC(=O)N(C4CCCCC4)C3)n2)CC1 (stereo not given)
  cytotoxicity at 70.5 h: -8.25%

## CC(CNCc1ccc(Cl)c(Cl)c1)Oc1ccccn1 (stereo not given)
  cytotoxicity at 70.5 h: -1.69%

## c1cc(OCc2ccc3c(c2)OCO3)ccc1CNC1CC1
  cytotoxicity at 70.5 h: 48%

## CC(C)N1CCC2(CC1)CC(NS(C)(=O)=O)c1ccccc1O2 (stereo not given)
  cytotoxicity at 70.5 h: 4.16%

## Cc1ccsc1CN1C[C@@H]2COC[C@]2(COCC(=O)N(C)C)C1
  cytotoxicity at 70.5 h: -0.655%

## CN(C)C(=O)COC[C@]12COC[C@H]1CN(CCc1ccccc1)C2
  cytotoxicity at 70.5 h: -1.91%

## COCc1ncn2c1CN(C(=O)c1cccc3cccnc13)CC2
  cytotoxicity at 70.5 h: 19.6%

## CC(C)NC(=O)c1ccc2c(c1)C1(CCN(C(C)C)CC1)C(=O)N2
  cytotoxicity at 70.5 h: 0.266%

## CC(C)COC[C@@H]1CC[C@H]2[C@H](CCN2C(=O)c2ccncc2F)O1
  cytotoxicity at 70.5 h: 1.98%

## CCN1CCC2(CC1)C(=O)Nc1ccc(C(=O)NC)cc12
  cytotoxicity at 70.5 h: 4.51%

## CS(=O)(=O)NC1CC2(CCN(CC3CC3)CC2)Oc2ccccc21 (stereo not given)
  cytotoxicity at 70.5 h: 1.75%

## CNC(=O)c1ccc2c(c1)C1(CCN(CCOC)CC1)C(=O)N2
  cytotoxicity at 70.5 h: 0.0675%

## O=c1ccc2c([nH]1)CCC(NCc1ccc3c(c1)OCO3)C2 (stereo not given)
  cytotoxicity at 70.5 h: -1.6%

## Cc1ccc(CN2C[C@@H]3[C@@H](C(=O)NCC(C)C)CCS(=O)(=O)[C@@H]3C2)cc1
  cytotoxicity at 70.5 h: -1.42%

## CN(C)CCn1c2c(ccc1=O)CCN(C(=O)c1cccs1)CC2
  cytotoxicity at 70.5 h: -5.63%

## Cc1ccc(C(=O)N2CCc3ccc(=O)n(CCN(C)C)c3CC2)o1
  cytotoxicity at 70.5 h: -4.04%

## CNC(=O)CN1CC[C@H]2CN(C(=O)c3ccc(C)cc3)C[C@H]2C1
  cytotoxicity at 70.5 h: -4.71%

## Cc1ccc(CN2C[C@@H]3[C@@H](C(=O)NCC4CC4)CCS(=O)(=O)[C@@H]3C2)cc1
  cytotoxicity at 70.5 h: -1.55%

## Cc1cccc(CN2C[C@@H]3[C@@H](C(=O)NCC(C)C)CCS(=O)(=O)[C@@H]3C2)c1
  cytotoxicity at 70.5 h: -6.13%

## CN1CCc2cc(C(=O)N(C)C)c(NCC3CC3)nc2CC1
  cytotoxicity at 70.5 h: -1.63%

## Cc1nc(CN2CC[C@@H](OCC3CC3)[C@@H]2Cc2cccnc2)cs1
  cytotoxicity at 70.5 h: -0.893%

## Cc1ccc(N[C@@H]2CN(Cc3cc(C)on3)C[C@@H]3CCCO[C@@H]32)nn1
  cytotoxicity at 70.5 h: 2.24%

## O=C(C1CC1)N1CC[C@@H]2[C@H](CC1)N(Cc1cccnc1)CCS2(=O)=O
  cytotoxicity at 70.5 h: -2.85%

## CN(C)CCN1CCN(Cc2cccc(C#N)c2)Cc2cccnc21
  cytotoxicity at 70.5 h: -2.4%
